Measured values as given in publication PMC11327196, “A phase 1 study to assess the absolute bioavailability, mass balance, pharmacokinetics, metabolism, and excretion of [^14C]-mobocertinib, an oral inhibitor of EGFR exon 20 insertion mutations, in healthy participants” (Investigational New Drugs, 2024).
“Also recorded” adds a separate entry of the source.

Experiments:
[1] = set-up: method as in PMID 34145979; details: healthy participants, cited from earlier work
[2] = oral doses ranging from 5 to 180 mg; cited from earlier work
[3] = Period 2 human ADME study: plasma PK after oral solution [14C]-mobocertinib; type: in vivo
Protocol: This was a two-period, open-label, single-dose phase 1 study (NCT03811834) conducted at one clinical site (Celerion, Lincoln, Nebraska, USA) in healthy male participants. The primary objective of Period 1 was to determine the absolute bioavailability of mobocertinib following a single oral dose of 160 mg mobocertinib as capsules and a single intravenous (IV) microdose of 50 µg (~ 2 µCi) [^14C]-mobocertinib. The primary objectives of Period 2 were to (1) assess the cumulative excretion of total radioactivity in urine and feces (mass balance); (2) assess the metabolite profile of mobocertinib in plasma, urine, and feces; and (3) characterize the PK of mobocertinib, AP32960, and AP32914 in plasma, whole blood, and urine, and total radioactivity concentration equivalents in plasma and whole blood following a single oral dose of 160 mg (~ 100 µCi) [^14C]-mobocertinib as an oral solution. A sample size of 6 healthy males was selected without statistical considerations and deemed adequate to meet the study objectives. Furthermore, the sample size was limited based on clinical considerations for human ADME studies and to limit exposure to radioactivity.
After a washout of 8–9 days, participants returned to the clinic for Day − 1 of Period 2. On Day 1 of Period 2, after a fast of ≥ 10 h, participants received a single nominal dose of 160 mg (~ 100 µCi; whole body effective dose of 5.3 mrem for a 70-kg human) [^14C]-mobocertinib as a 70 mL oral solution. The actual doses administered ranged from 161 to 163 mg (92.4 to 93.9 µCi). Participants stayed in the clinic from Day − 1 until a discharge criterion (≥ 80% of the total administered radioactive dose was recovered in urine and feces or excretion of radioactivity in urine and feces combined had declined to ≤ 1% of the total administered dose per day for ≥ 2 consecutive intervals) was met, or up to 10 days postdose. To measure the total radioactivity and concentrations of mobocertinib, AP32960, and AP32914 in whole blood and plasma, 4 blood samples were collected predose, and at 0.5, 1, 2, 3, 4, 5, 6, 8, 12, 24, 36, 48, 72, 96, 120, 144, 168, 192, 216, and 240 h postdose; a fifth blood sample was collected for plasma metabolite profiling at predose and 1, 2, 4, 6, 12, 24, 48, 72, 96, 120, and 168 h postdose. Feces and urine were collected predose (feces within 48 h and urine within 24 h prior to dosing), 0–24 h (urine from 0–12 and 12–24 h), and then at 24-hour intervals up to 240 h postdose or until a discharge criterion was met. […] These 2 participants continued with at-home fecal sample collections. One participant provided fecal samples until Day 13 (264–288 h interval) and one participant provided fecal samples until Day 19 (408–432 h interval), after which they met a discharge criterion.
Plasma, whole blood, and urine samples were assayed for mobocertinib, AP32960, and AP32914 concentrations using liquid chromatography-tandem mass spectrometry (Q2 Solutions, Ithaca, New York, USA). The analytical range for each analyte was 0.250 to 500 ng/mL in whole blood and plasma, and 1.00 to 1000 ng/mL in urine. […] Urine and fecal samples were assayed for total radioactivity following the IV dose of [^14C]-mobocertinib in Period 1, and whole blood, plasma, urine, and fecal samples were assayed for total radioactivity following the oral dose of [^14C]-mobocertinib in Period 2 using liquid scintillation counting (LSC; Celerion, Lincoln, Nebraska, USA; LLOQs: Period 1 urine: 0.115–0.118 ng eq/g, feces: 0.720–0.759 ng eq/g; Period 2 whole blood: 87.3–112 ng eq/g, plasma: 116–132 ng eq/mL, urine: 37.8–46.8 ng eq/g, feces: 110–336 ng eq/g across participants). Urine and fecal samples collected in Period 1 that had total radioactivity concentration equivalents below the LLOQ of the Celerion LSC assay were sent to Pharmaron for measurement by AMS (LLOQ: urine: 0.0000253–0.00111 ng eq/g; feces: 0.000404–0.0278 ng eq/g across participants). The LSC and AMS assays were not cross-validated. […]

[4] = Safety assessments (adverse events) in healthy participants; type: in vivo, human
Protocol: Safety was evaluated based on the incidence and severity of AEs and changes from baseline in clinical laboratory results, vital signs, and ECG parameters. AEs were graded according to Common Terminology Criteria for Adverse Events version 5.0.

[5] = Period 2, oral solution 160 mg [14C]-mobocertinib, geometric mean (geometric CV%)
[6] = male, human, Period 2, oral solution 160 mg [14C]-mobocertinib, geometric mean (geometric CV%)

C=CC(=O)Nc1cc(Nc2ncc(C(=O)OC(C)C)c(-c3cn(C)c4ccccc34)n2)c(OC)cc1N(C)CCN(C)C [Mobocertinib]
decrease of combined molar AUC of mobocertinib and its active metabolites ([1]; coadministration of strong CYP3A inducer rifampin): 95%
increase of combined molar AUC of mobocertinib and its active metabolites ([1]; coadministration of strong CYP3A inhibitor itraconazole): 527%
median time to maximum observed concentration (tmax) [2]: 4 h
t1/2z of total radioactivity ([3]; Period 2, oral solution 160 mg [14C]-mobocertinib, exceeds duration of sampling, approximate estimate, geometric mean (geometric CV%)): ~281 h
CL/F [3, 5]: 169 (38.4) L/h
Molar AUC∞ ratio (analyte vs. total radioactivity) [3, 5]: 0.00172 (31.1)
tmax ([3]; Period 2, single oral solution 160 mg (~100 µCi) [14C]-mobocertinib, median (range)): 6.0 (3.0–6.0) h
AUC(0-inf) [3, 6]: 956 ng·h/mL
AUC(0-t) [3, 6]: 945 ng·h/mL
Cmax [3, 6]: 51 ng/mL
Vd/F ([3]; male, human, Period 2, oral solution 160 mg [14C]-mobocertinib, geometric mean (geometric CV%), read-out: Vz/F): 5560 L
half-life ([3]; male, human, Period 2, oral solution 160 mg [14C]-mobocertinib, geometric mean (geometric CV%), read-out: t1/2z (converted)): 22.8 h
deaths or serious AEs ([4]; 7 healthy male participants, Periods 1 and 2): no deaths or serious AEs
severity of AEs ([4]; CTCAE version 5.0, both treatment periods): grade 1 (mild)
participants who experienced at least 1 AE ([4]; Period 1): 6
participants who experienced at least 1 AE ([4]; Period 2): 4
overall safety and tolerability ([4]; both treatment periods): generally safe and well-tolerated; also recorded: no new safety signals observed
incidence of most common AEs (constipation, diarrhea, and nausea, each) ([4]; each in 2 of 7 participants): 29%
discontinuation because of AEs ([4]; eructation, nausea, salivary hypersecretion, vomiting on Day 1 of Period 1): One participant discontinued the study early because of multiple AEs
participants who experienced at least 1 AE ([4]; of 7 participants, whole study): 7
